Source: patent US12161642B2, “Ferrochelatase inhibitors and methods of use” (INDIANA UNIVERSITY RESEARCH AND TECHNOLOGY CORPORATION, priority 2018, dated 2024)

Key:
HRECs = experiment: HREC proliferation assay (alamarBlue), GI50 determination; assay type: cell-based, human; settings: proliferation of HRECs
Experimental: Human retinal microvascular endothelial cells (HRECs) were cultured in EGM-2 medium (Lonza). Cells (2500/well) in EGM-2 medium were plated in 48 wells in the center of a 96-well black with clear bottom TC treated plate are allowed to attach overnight. The cells were treated with compounds such that final assay concentrations were 100 μM, 30 μM, 10 μM, 3 μM, 1 μM, 100 nM, and 10 nM with DMSO control (1% final DMSO concentration). Cells were allowed to proliferate for 44 hours prior to addition of alamarBlue. The alamarBlue reagent is a flurorometric/colorimetric redox reagent that is reduced in the presence of growing cells. The assay was completed with a read of fluorescence at excitation of 560 nm and emission of 590 nm. GI50 values were determined using GraphPad Prism software.

recombinant human FECH = recombinant human FECH (Homo sapiens (Human), UniProt P22830); experiment: FECH enzymatic activity assay (Ni2+ mesoporphyrin IX formation, absorbance at 550 nm); assay type: biochemical; settings: recombinant FECH; read-out: FECH IC50
Chain of recombinant human FECH (P22830 55-423): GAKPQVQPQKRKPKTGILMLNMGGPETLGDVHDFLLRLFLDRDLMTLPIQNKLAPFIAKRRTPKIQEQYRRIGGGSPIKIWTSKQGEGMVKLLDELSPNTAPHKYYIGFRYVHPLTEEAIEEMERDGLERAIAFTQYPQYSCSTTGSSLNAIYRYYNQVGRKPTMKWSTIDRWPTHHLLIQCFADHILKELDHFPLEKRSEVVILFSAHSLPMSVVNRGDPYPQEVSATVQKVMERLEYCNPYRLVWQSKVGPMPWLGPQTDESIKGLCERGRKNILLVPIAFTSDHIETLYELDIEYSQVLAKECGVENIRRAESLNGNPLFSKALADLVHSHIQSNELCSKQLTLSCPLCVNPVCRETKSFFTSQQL
Experimental: The human FECH expression plasmid pHDTF20 was obtained in E. coli cells from the Dailey Lab (University of Georgia). The cells were grown in Circlegrow medium (MP Biomedicals, LLC #3000-122) with ampicillin for 20 hours. Cells were harvested, lysed in a Tris-MOPS buffer and purified by immobilized metal affinity chromatography using HisPur Cobalt resin (Thermo Fisher #89965).
The activity assay buffer was 100 mM Tris-HCl pH 8.0 with 0.05% octyl glucoside detergent. Assay reagents included 100 μM NiCl (Sigma #339350), 0.75 μM FECH enzyme and 100 μM mesoporphyrin (Sigma #258806) prepared in ammonium hydroxide (Santa Cruz #sc-214535).
The kinetic assay was optimized for a 384-well format. For the 384-well assay, each well contained a 50 μL reaction with 40 μL buffer, 5 μL mesoporphyrin solution, 5 μL NiCl and FECH solution. […] This time point was used for the chemical screen.
A mixture of assay buffer, NiCl and FECH enzyme (15 μL) was added to all wells on the assay plate using a MulitFlo dispenser. To start the reaction, 15 μL of a 333 μM mesoporphyrin solution in assay buffer was added to the plate, the plate spun down and the absorbance at OD=550 nm immediately read to establish a read at time 0. Plates were read for absorbance at OD=550 nm again at t=20 minutes and the activity was expressed as the change in the absorbance over the 20 minute reaction.
Compounds, reordered from ChemDiv or synthesized as described above, were made to 10 mM in DMSO and tested in the FECH enzymatic assay at final concentrations of […] 100 μM (1% final DMSO concentration). IC50 values for the compounds were determined using GraphPad Prism software.
A kinetic assay to monitor FECH enzymatic activity was adapted from a published protocol (Burden et a., Biochim Biophys Acta 1435, 191-197 (1999)).

Row | SMILES | GI50 (HRECs; Homo sapiens, HREC, 44 h) [µM] | IC50 (recombinant human FECH) [µM] | GI50 (HRECs; 44 hours) [µM]
1 | CN(Cc1ccccc1)Cc1cc(=O)n2nc(-c3ccc(C(C)(C)C)cc3)nc2[nH]1 [Example 4a, 5-((benzyl(methyl)amino)methyl)-2-(4-(tert-butyl)phenyl)-[1,2,4]triazolo[1,5-a]pyrimidin-7(4H)-one] | > 100 | > 100 | –
2 | CC(C)(C)c1ccc(-c2nc3[nH]c(CNCCc4ccccc4)cc(=O)n3n2)cc1 [Example 4c, 2-(4-(tert-butyl)phenyl)-5-((phenethylamino)methyl)-[1,2,4]triazolo[1,5-a]pyrimidin-7(4H)-one] | > 100 | > 100 | –
3 | CC(C)(C)c1ccc(-c2nc3[nH]c(CCl)cc(=O)n3n2)cc1 [Example 3, 2-(4-(tert-butyl)phenyl)-5-(chloromethyl)-[1,2,4]triazolo[1,5-a]pyrimidin-7(4H)-one] | > 100 | > 100 | –
4 | CC(C)(C)c1ccc(-c2n[nH]c(N)n2)cc1 [Example 1, 3-(4-(tert-butyl)phenyl)-1H-1,2,4-triazol-5-amine] | > 100 | > 100 | –
5 | CCCc1cc(=O)n2nc(CNc3cccc(Cl)c3C)nc2[nH]1 [Example D433-1750] | > 100 | 2.15 | –
6 | CCCc1cc(=O)n2nc(CNc3cccc(C)c3)nc2[nH]1 [Example 5b, 5-propyl-2-((m-tolylamino)methyl)-[1,2,4]triazolo[1,5-a]pyrimidin-7(4H)-one] | > 100 | 0.508 | –
7 | CCCc1cc(=O)n2nc(CNc3ccc(CC)cc3)nc2[nH]1 [Example 5j, 2-(((4-ethylphenyl)amino)methyl)-5-propyl-[1,2,4]triazolo[1,5-a]pyrimidin-7(4H)-one] | > 100 | 10.6 | –
8 | O=c1c2c([nH]c3nc(CNc4ccc(Cl)cc4)nn13)CCC2 [Example D433-1839] | 81.5 | 1.05 | –
9 | CC(C)(C)c1ccc(-c2nc3[nH]c(CNC4CCCC4)cc(=O)n3n2)cc1 [Example 4f, 2-(4-(tert-butyl)phenyl)-5-((cyclopentylamino)methyl)-[1,2,4]triazolo[1,5-a]pyrimidin-7(4H)-one] | > 100 | > 100 | –
10 | Cc1c(Cl)cccc1NCc1nc2[nH]c(C(C)C)cc(=O)n2n1 [Example D433-1800] | – | 0.751 | –
11 | COc1ccc(NCc2nc3[nH]c(C)c(Cc4ccc(Cl)cc4)c(=O)n3n2)cc1 [Example D433-1582] | > 100 | 0.0614 | –
12 | CCCc1cc(=O)n2nc(CNc3ccc(Cl)cc3)nc2[nH]1 [Example D433-1739] | – | 0.829 | 3.14
13 | Cc1cc(=O)n2nc(-c3ccc(C(C)(C)C)cc3)nc2[nH]1 [Example 2, 2-(4-(tert-butyl)phenyl)-5-methyl-[1,2,4]triazolo[1,5-a]pyrimidin-7(4H)-one] | > 100 | > 100 | –
14 | Cc1cccc(NCc2nc3[nH]c4c(c(=O)n3n2)CCC4)c1 [Example 5p, 2-((m-tolylamino)methyl)-4,5,6,7-tetrahydro-8H-cyclopenta[d][1,2,4]triazolo[1,5-a]pyrimidin-8-one] | > 100 | 9.34 | –
15 | CCCc1cc(=O)n2nc(CNc3cccc(C(F)(F)F)c3)nc2[nH]1 [Example D433-1725] | 1.17 | 4.39 | –
16 | Cc1ccccc1NCc1nc2[nH]c3c(c(=O)n2n1)CCC3 [Example 5o, 2-((o-tolylamino)methyl)-4,5,6,7-tetrahydro-8H-cyclopenta[d][1,2,4]triazolo[1,5-a]pyrimidin-8-one] | > 100 | > 100 | –
17 | CCCc1cc(=O)n2nc(CNc3ccc(F)cc3)nc2[nH]1 [Example 5m, 2-(((4-fluorophenyl)amino)methyl)-5-propyl-[1,2,4]triazolo[1,5-a]pyrimidin-7(4H)-one] | > 100 | 0.525 | –

Row | SMILES | GI50 (HRECs; Homo sapiens, HREC, 44 h) [µM] | IC50 (recombinant human FECH) [µM] | GI50 (HRECs; 44 hours) [µM]
18 | CC(C)(C)c1ccc(-c2nc3[nH]c(CNc4ccnn4-c4ccccc4)cc(=O)n3n2)cc1 [Example 4b, 2-(4-(tert-butyl)phenyl)-5-(((1-phenyl-1H-pyrazol-5-yl)amino)methyl)-[1,2,4]triazolo[1,5-a]pyrimidin-7(4H)-one] | > 100 | > 100 | –
19 | CCCc1cc(=O)n2nc(CNc3cccc(Cl)c3)nc2[nH]1 [Example 5e, 2-(((3-chlorophenyl)amino)methyl)-5-propyl-[1,2,4]triazolo[1,5-a]pyrimidin-7(4H)-one] | > 100 | 0.346 | –
20 | CCOC(=O)CCc1c(C)[nH]c2nc(CNc3ccc(C)c(Cl)c3)nn2c1=O [Example D433-1688] | > 100 | 2.99 | –
21 | Cc1ccc(Cl)cc1NCc1cc(=O)n2nc(-c3ccccc3C)nc2[nH]1 [Example D351-0414] | > 100 | 0.346 | –
22 | CCCc1cc(=O)n2nc(CNc3ccc(OC(F)(F)F)cc3)nc2[nH]1 [Example 5n, 5-propyl-2-(((4-(trifluoromethoxy)phenyl)amino)methyl)-[1,2,4]triazolo[1,5-a]pyrimidin-7(4H)-one] | > 100 | 34.1 | –
23 | Cc1cccc(NCc2nc3[nH]c(C)cc(=O)n3n2)c1 [Example 5v, 5-methyl-2-((m-tolylamino)methyl)-[1,2,4]triazolo[1,5-a]pyrimidin-7(4H)-one] | > 100 | 18.7 | –
24 | CCCc1cc(=O)n2nc(CNc3ccccc3-c3ccccc3)nc2[nH]1 [Example 5g, 2-(([1,1′-biphenyl]-2-ylamino)methyl)-5-propyl-[1,2,4]triazolo[1,5-a]pyrimidin-7(4H)-one] | > 100 | 27.3 | –
25 | CCN(CC)Cc1cc(=O)n2nc(-c3ccc(C(C)(C)C)cc3)nc2[nH]1 [Example 4g, 2-(4-(tert-butyl)phenyl)-5-((diethylamino)methyl)-[1,2,4]triazolo[1,5-a]pyrimidin-7(4H)-one] | > 100 | > 100 | –
26 | COc1cccc(NCc2nc3[nH]c4c(c(=O)n3n2)CCC4)c1 [Example D433-1841] | > 100 | 3.75 | –
27 | Cc1cc(=O)n2nc(CNc3ccccc3C)nc2[nH]1 [Example 5u, 5-methyl-2-((o-tolylamino)methyl)-[1,2,4]triazolo[1,5-a]pyrimidin-7(4H)-one] | > 100 | 77.2 | –
28 | Cc1cccc(NCc2nc3[nH]c(C(C)C)cc(=O)n3n2)c1 [Example 5s, 5-isopropyl-2-((m-tolylamino)methyl)-[1,2,4]triazolo[1,5-a]pyrimidin-7(4H)-one] | > 100 | 28.1 | –
29 | CCCc1cc(=O)n2nc(CNc3cccc(OC)c3)nc2[nH]1 [Example D433-1741] | 1.61 | 2.86 | –
30 | CCCc1cc(=O)n2nc(CNc3ccc(F)c(F)c3)nc2[nH]1 [Example 5k, 2-(((3,4-difluorophenyl)amino)methyl)-5-propyl-[1,2,4]triazolo[1,5-a]pyrimidin-7(4H)-one] | > 100 | 0.0429 | –
31 | Cc1ccc(NCc2nc3[nH]c(C)cc(=O)n3n2)cc1 [Example 5w, 5-methyl-2-((p-tolylamino)methyl)-[1,2,4]triazolo[1,5-a]pyrimidin-7(4H)-one] | > 100 | 22.5 | –
32 | Cc1ccc(NCc2nc3[nH]c4c(c(=O)n3n2)CCC4)cc1 [Example 5q, 2-((p-tolylamino)methyl)-4,5,6,7-tetrahydro-8H-cyclopenta[d][1,2,4]triazolo[,5-a]pyrimidin-8-one] | > 100 | 3.62 | –
33 | COc1cccc(NCc2cc(=O)n3nc(-c4ccc(C(C)(C)C)cc4)nc3[nH]2)c1 [Example D351-0319] | > 100 | – | –
